Data: US20240034761A1, “REGENERATION OF MAMMALIAN TISSUES USING SYNTHETIC IMMODULINS” (priority 2022, published 2024)
Marks after values point to notes of the source that are not given here. Ends that are not written are not given here. Peptide text beside a SMILES is read from it. * marks the point of attachment. Biotin = O=C1N[C@H]2[C@H](CS[C@H]2CCCCC(=O)*)N1

Tests used:
[1] = PIP-binding membrane assay (Membrane Lipid Strips); parameters: key: —: −−− no binding; +++ strong binding; conditions: 400 ng peptide
Method: N-terminally biotinylated versions of the peptides listed below were used in various assays listed in the examples. For the two types of phosphatidylinositon phosphate (PIP)-binding assays, imm1-imm6 peptides were used.
In the PIP-binding membrane assay, 400 ng of each peptide was bound to Membrane Lipid Strips (Catalog # P-6002, Echelon Biosciences, Salt Lake City, UT) and developed according to the manufacturer's instructions. Binding to PIPs was as follows (−−− no binding; +++ strong binding): […]

[2] = test system: HFF-1 human fibroblast cell line; test: Collagen stimulating activity in HFF-1 dermal fibroblasts (Collagen-1 ELISA); format: cell-based; conditions: peptide 2 uM, 72 hour; control (buffer) set to 100
Method: Immodulin peptides have potential untility in the field of cosmetics. HFF-1 human fibroblast cell line was obtained from the American Type Culture Collection (ATCC). Cells were grown in a T-75 flask in DMEM Medium containing 10% fetal bovine serum and penicillin-streptomycin at 37° C. in a humidified, 5% CO2 incubator. Cells ([…], 2,000 cells/well) were plated in a 96-well plate and incubated overnight at 37° C. in a humidified, 5% CO2 incubator. Next day, […] of compounds were added (quadruplicate wells). After 72 hour incubation with the compound, supernatants were collected for Collagen-1 ELISA assay and cell viability was measured in a luminometer after the addition of […] CellTiterGlo reagent (Promega Inc, Madison, WI) as recommended by the manufacturer. Collagen stimulating activity of immodulin peptides in HFF-1 dermal fibroblasts: Peptides were added to cells at 2 uM. Collagen-1A1 (COL1) immunoreactivity was measured in the supernatants of cultured cells by ELISA using a rabbit monoclonal anti-COL1 primary antibody (Abcam, Cambridge, MA). Control (buffer) value of immunoreactivity was set to 100.

[3] = Plate assay: biotinylated peptide on streptavidin plates, FITC-labelled PIP2; format: binding; conditions: 400 ng peptide per well; for FITC-PIP2 fluorescence, Background Control: EDTA background; for FITC-PIP2 fluorescence, Ferric Iron: with ferric iron; for FITC-PIP2 fluorescence, Zinc: with zinc
Method: In the plate assay, biotinylated peptides imm3 and imm5 were bound to 96-well, streptavidin-coated plates (BioLegend corporaton, San Diego, CA) at 400 ng per well in PBS buffer at room temperature for 60 mins. Plates were washed in PBS and developed with FITC-labelled PIP2 (purchased from Cayman Chemical Co, Ann Arbor, MI). Fluorescence was counted in a laboratory fluorescence spectrophotometer. The results were as follows (EDTA background set to =100; **p<0.01 vs background control): […]

[4] = test system: THP1-Dual monocyte reporter cell line; test: THP1-Dual myeloid cell differentiation assay (PMA protocol); format: cell-based, human; conditions: PMA 24 h, then peptide 0.33 uM or 0.66 uM 24 h; for CD169+ (AU): relative to immX3AVD = 100
Method: Mammalian cell differentiation assays employed the THP1-Dual monocyte reporter cell line (Invivogen Inc, San Diego, CA) seeded at 2×10e5 cells per well in 96-well plates and cultured at 37 degrees C. in RPMI-1640 growth medium plus 10% fetal bovine serum and 1% penicillin/streptomycin. Cells were subsequently treated for 24 hours with 100 ng/ml Phorbol 12-myristate 13-acetate (PMA protocol; Cayman Chemical Company, Ann Arbor, MI). Peptide (0.33 uM or 0.66 uM, as indicated) was then added, and incubation continued for an additional 24 hours. Culture supernatants were assayed for CCL22. Plates with adherent cells were washed with PBS and assayed for immunoreactivity of surface markers such as CD169, Clec9a or Clec12a using fuorescent tag- or biotin-labeled anti-human antibodies purchased from Miltenyi Biotec (Auburn, CA) and the secondary detection reagent recommended by the manufacturer.

[5] = Plate binding of FITC-labelled heparin to immobilised biotinylated peptides; conditions: 400 ng peptide/well, 1 ug FITC-heparin, PBS; normalized to immX3 peptide binding = 100
Method: (§1) Effects of pH, PIP2 and size classes: Streptavidin-coated 96-well plates (G-Biosciences, St. Louis, MO) were pre-loaded with biotinylated peptides [see Example 1] at 400 ng/well, at room temperature for 60 minutes. The plate was washed with PBS buffer and then 1 ug FITC-labelled heparin or hyaluronic acid (FITC-HMW-HA) in 100 uL PBS buffer was added per well (all tests done in quadruplicate). Incubation proceeded for 90 minutes at room temperature, followed by two PBS washes. The plate was read in a standard laboratory fluorometer (488/525 nm exitation/[…]) and the counts normalized for immX3 peptide binding=100. Values statistically above background are shown in bold font. **p<0.05 versus immX3AVD.

[6] = Plate binding of FITC-labelled hyaluronic acid to immobilised biotinylated peptides; conditions: 400 ng peptide/well, 1 ug FITC-HMW-HA, PBS; normalized to immX3 peptide binding = 100
Method: as §1

[7] = target: pure recombinant CD44 protein (Abcam); test: plate assay, pH 5.2, peptide pre-bound with 10 ug/well HMW-hyaluronan (CD44 capture through HA), anti-CD44 mAb/TMB detection
[8] = target: pure recombinant CD44 protein (Abcam); test: plate assay, pH 7.4, peptide pre-bound with 10 ug/well LMW-hyaluronan (CD44 capture through HA), anti-CD44 mAb/TMB detection
[9] = target: pure recombinant CD44 protein (Abcam); test: plate assay, biotin-peptide on streptavidin plate, pH 7.4, no hyaluronan (CONTROL), 100 ng/well CD44, anti-CD44 mAb/TMB detection
[10] = target: pure recombinant CD44 protein (Abcam); test: plate assay, biotin-peptide on streptavidin plate, pH 5.2, no hyaluronan (CONTROL), 100 ng/well CD44, anti-CD44 mAb/TMB detection
[11] = target: pure recombinant CD44 protein (Abcam); test: plate assay, pH 7.4, peptide pre-bound with 1.5 ug/well HMW-hyaluronan (CD44 capture through HA), anti-CD44 mAb/TMB detection; reference set to 100
[12] = target: pure recombinant CD44 protein (Abcam); test: plate assay, pH 5.2, peptide pre-bound with 1.5 ug/well HMW-hyaluronan (CD44 capture through HA), anti-CD44 mAb/TMB detection; reference set to 100
[13] = target: pure recombinant CD44 protein (Abcam); test: plate assay, pH 7.4, peptide pre-bound with 10 ug/well HMW-hyaluronan (CD44 capture through HA), anti-CD44 mAb/TMB detection
[14] = target: pure recombinant CD44 protein (Abcam); test: plate assay, pH 5.2, peptide pre-bound with 10 ug/well LMW-hyaluronan (CD44 capture through HA), anti-CD44 mAb/TMB detection
[15] = target: pure recombinant CD44 protein (Abcam); test: plate assay, pH 5.2, peptide + 10 ug/well holotransferrin + 10 ug/well LMW-hyaluronan (CD44 capture through HA), anti-CD44 mAb/TMB detection
[16] = target: pure recombinant CD44 protein (Abcam); test: plate assay, pH 7.4, peptide + 10 ug/well holotransferrin, no hyaluronan (CONTROL), 100 ng/well CD44, anti-CD44 mAb/TMB detection
[17] = target: pure recombinant CD44 protein (Abcam); test: plate assay, pH 7.4, peptide + 10 ug/well holotransferrin + 10 ug/well LMW-hyaluronan (CD44 capture through HA), anti-CD44 mAb/TMB detection
[18] = target: pure recombinant CD44 protein (Abcam); test: plate assay, pH 5.2, peptide + 10 ug/well holotransferrin + 10 ug/well HMW-hyaluronan (CD44 capture through HA), anti-CD44 mAb/TMB detection
[19] = target: pure recombinant CD44 protein (Abcam); test: plate assay, pH 7.4, peptide + 10 ug/well holotransferrin + 10 ug/well HMW-hyaluronan (CD44 capture through HA), anti-CD44 mAb/TMB detection
[20] = target: pure recombinant CD44 protein (Abcam); test: plate assay, pH 5.2, peptide + 10 ug/well holotransferrin + 1.5 ug/well HMW-hyaluronan (CD44 capture through HA), anti-CD44 mAb/TMB detection
[21] = target: pure recombinant CD44 protein (Abcam); test: plate assay, pH 5.2, peptide + 10 ug/well holotransferrin, no hyaluronan (CONTROL), 100 ng/well CD44, anti-CD44 mAb/TMB detection
[22] = target: pure recombinant CD44 protein (Abcam); test: plate assay, pH 7.4, peptide + 10 ug/well holotransferrin + 1.5 ug/well HMW-hyaluronan (CD44 capture through HA), anti-CD44 mAb/TMB detection

Chain of pure recombinant CD44 protein (Abcam) (P16070 whole entry): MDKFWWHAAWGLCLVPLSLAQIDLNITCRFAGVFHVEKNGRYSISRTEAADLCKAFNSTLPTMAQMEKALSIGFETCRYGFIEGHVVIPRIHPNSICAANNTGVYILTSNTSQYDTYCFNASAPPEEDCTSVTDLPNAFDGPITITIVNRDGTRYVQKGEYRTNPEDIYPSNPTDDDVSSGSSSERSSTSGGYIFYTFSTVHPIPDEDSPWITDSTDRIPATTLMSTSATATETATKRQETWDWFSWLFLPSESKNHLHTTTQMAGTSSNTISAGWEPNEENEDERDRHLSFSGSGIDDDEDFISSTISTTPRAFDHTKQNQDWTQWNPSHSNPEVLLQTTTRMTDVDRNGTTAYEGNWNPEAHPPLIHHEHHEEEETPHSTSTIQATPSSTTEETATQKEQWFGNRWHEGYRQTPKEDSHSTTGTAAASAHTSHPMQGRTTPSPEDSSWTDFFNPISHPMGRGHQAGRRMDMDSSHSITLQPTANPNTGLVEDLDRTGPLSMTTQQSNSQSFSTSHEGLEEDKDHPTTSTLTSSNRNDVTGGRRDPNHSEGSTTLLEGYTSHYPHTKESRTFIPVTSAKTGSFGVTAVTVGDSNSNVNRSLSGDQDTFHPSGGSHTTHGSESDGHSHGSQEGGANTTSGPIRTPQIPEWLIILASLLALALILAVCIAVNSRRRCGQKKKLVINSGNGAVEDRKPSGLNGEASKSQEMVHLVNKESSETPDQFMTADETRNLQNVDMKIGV

Row | Molecule | Binding to Phosphatidylinositol [1] | Binding to PtdIns(4)P [PIP1] [1] | Binding to PtdIns(4,5)P [PIP2] [1] | COL1 (Collagen-1A1 immunoreactivity in supernatant) [2] | FITC-PIP2 fluorescence, Background Control [3] | FITC-PIP2 fluorescence, Ferric Iron [3] | FITC-PIP2 fluorescence, Zinc [3] | CD169+ (AU) [4] [AU] | Heparin binding (fluorescence counts) [5] | Hyaluronate binding (fluorescence counts) [6] | further results
1 | N=C(N)NCCC[C@H](NC(=O)CNC(=O)[C@H](CCCCN)NC(=O)[C@H](CO)NC(=O)[C@@H]1CCCN1C(=O)[C@H](CCCNC(=N)N)NC(=O)[C@H](CS)NC(=O)[C@H](CCC(N)=O)NC(=O)[C@H](CCCCN)NC(=O)[C@H](CCCCN)NC(=O)[C@H](CCCCN)NC(=O)[C@H](Cc1ccc(O)cc1)NC(=O)[C@H](Cc1ccccc1)NC(=O)CNC(=O)[C@H](CCCCN)NC(=O)[C@@H](N)CCCCN)C(=O)N[C@@H](CCCCN)C(=O)N[C@@H](CCCNC(=N)N)C(=O)NCC(=O)N[C@@H](Cc1ccccc1)C(=O)N[C@@H](CS)C(=O)N[C@@H](Cc1c[nH]c2ccccc12)C(=O)O [imm3] (H-KKGFYKKKQCRPSKGRKRGFCW-OH) | — | — | +++ | 101 | 1.0 ± 0.8 | 26.2 ± 5.7** | 4.7 ± 1.3** | 27.8 ± 3.0 | 104.2 ± 22.0 | 57.2 ± 5.7** | CCL22 ([4]; culture supernatant): 55.3 ± 16.1 pg/mL
2 | CC(C)C[C@H](NC(=O)[C@H](C)NC(=O)[C@@H]1CCCN1C(=O)[C@H](Cc1c[nH]cn1)NC(=O)[C@H](CS)NC(=O)[C@H](CCC(N)=O)NC(=O)[C@H](CCCCN)NC(=O)[C@@H]1CCCN1C(=O)[C@H](Cc1c[nH]cn1)NC(=O)[C@H](Cc1ccccc1)NC(=O)[C@H](CC(N)=O)NC(=O)CNC(=O)[C@H](CC(N)=O)NC(=O)[C@@H](N)CCCNC(=N)N)C(=O)N[C@@H](CC(=O)O)C(=O)NCC(=O)N[C@@H](CCC(N)=O)C(=O)N[C@@H](CCCNC(=N)N)C(=O)NCC(=O)N[C@@H](CCCCN)C(=O)N[C@@H](CS)C(=O)N[C@@H](Cc1c[nH]c2ccccc12)C(=O)O [imm4] (H-RNGNFHPKQCHPALDGQRGKCW-OH) | — | — | — | 105 |  |  |  | 3.8 ± 1.1 | 6.8 ± 24.1 | 14.6 ± 22.6 | Binding to PtdIns(3,4,5)P [PIP3] [1]: —
3 | CC[C@H](C)[C@H](NC(=O)CNC(=O)[C@H](CCCNC(=N)N)NC(=O)[C@H](CCCCN)NC(=O)[C@H](CCCNC(=N)N)NC(=O)CNC(=O)[C@H](CCCNC(=N)N)NC(=O)[C@H](CO)NC(=O)[C@@H]1CCCN1C(=O)[C@H](CCCCN)NC(=O)[C@H](CS)NC(=O)[C@H](CCC(N)=O)NC(=O)[C@H](CCCCN)NC(=O)[C@H](CCCNC(=N)N)NC(=O)[C@H](CCCCN)NC(=O)[C@H](Cc1ccc(O)cc1)NC(=O)[C@H](Cc1ccccc1)NC(=O)CNC(=O)[C@H](CCCCN)NC(=O)[C@@H](N)CCCNC(=N)N)C(=O)N[C@@H](CS)C(=O)N[C@@H](Cc1c[nH]c2ccccc12)C(=O)O [imm5] (H-RKGFYKRKQCKPSRGRKRGICW-OH) | — |  | +++ | 93 | 1.8 ± 0.5 | 23.4 ± 3.5** | 5.0 ± 1.2** | 36.5 ± 3.0 | 95.1 ± 25.7 | 60.0 ± 8.6** | 
4 | Biotin-KKGFYKKKQCRPSKGRKRGFCWAVD (cysteine pairing not given here) [immX3AVD peptide (N-terminally biotinylated, bound to streptavidin-coated plate)] |  |  |  |  |  |  |  |  |  |  | CD44 immunoreactivity (AU) (AU (immX3AVD + 1.5 ug HMW-HA = 100)) [7]: 105; CD44 immunoreactivity (AU) (AU (immX3AVD + 1.5 ug HMW-HA = 100)) [8]: 103; CD44 immunoreactivity (AU) (AU (immX3AVD + 1.5 ug HMW-HA = 100)) [9]: 19.6; CD44 immunoreactivity (AU) (AU (immX3AVD + 1.5 ug HMW-HA = 100)) [10]: 13.2; CD44 immunoreactivity (AU) (AU (immX3AVD + 1.5 ug HMW-HA = 100)) [11]: 100; CD44 immunoreactivity (AU) (AU (immX3AVD + 1.5 ug HMW-HA = 100)) [12]: 100; CD44 immunoreactivity (AU) (AU (immX3AVD + 1.5 ug HMW-HA = 100)) [13]: 101; CD44 immunoreactivity (AU) (AU (immX3AVD + 1.5 ug HMW-HA = 100)) [14]: 103
5 | Biotin-KKGFYKKKQCRPSKGRKRGFCWAVD (peptide, part only; not given: holotransferrin, not shown: large carriers, cysteine pairing not given here; also: non-covalent mixture/complex with holotransferrin, stoichiometry not given here) [immX3AVD + holoTf (immX3AVD peptide incubated with 10 ug/well holotransferrin)] |  |  |  |  |  |  |  |  |  |  | CD44 immunoreactivity (AU) (AU (immX3AVD + 1.5 ug HMW-HA = 100)) [15]: 27.4; CD44 immunoreactivity (AU) (AU (immX3AVD + 1.5 ug HMW-HA = 100)) [16]: 3.1; CD44 immunoreactivity (AU) (AU (immX3AVD + 1.5 ug HMW-HA = 100)) [17]: 38.7; CD44 immunoreactivity (AU) (AU (immX3AVD + 1.5 ug HMW-HA = 100)) [18]: 94.8; CD44 immunoreactivity (AU) (AU (immX3AVD + 1.5 ug HMW-HA = 100)) [19]: 107; CD44 immunoreactivity (AU) (AU (immX3AVD + 1.5 ug HMW-HA = 100)) [20]: 103; CD44 immunoreactivity (AU) (AU (immX3AVD + 1.5 ug HMW-HA = 100)) [21]: 12; CD44 immunoreactivity (AU) (AU (immX3AVD + 1.5 ug HMW-HA = 100)) [22]: 98.3
